Data on eight molecules can be found in ChEMBL document CHEMBL1145395, “De novo design of selective antibiotic peptides by incorporation of unnatural amino acids” (J Med Chem, 2007).

One may read the MIC as the lowest concentration found to suppress growth. A lower MIC goes with greater potency.

One assay relates to Salmonella typhimurium. The experiment in a line: Antibacterial activity against Salmonella Typhimurium ATCC 13311. In kind it is functional. To be noted: for Activity: Salmonella enterica subsp. enterica serovar Typhimurium; for MIC: Salmonella enterica.
A further assay relates to Staphylococcus aureus. The experiment in a line: Antibacterial activity against methicillin/gentamicin/tetracycline resistant Staphylococcus aureus ATCC 33592. It is filed as functional.

≈ marks a conversion by molar mass, not a printed value. Calls of active or inactive are those of the source. The calls are words filed in the database; no cut-off is given here. Non-standard residues stand in square brackets, D forms with d. Residues, ends and D or L forms follow the SMILES beside them. ξ: configuration not given here. Pro(3ξ,4ξ-(CH2)4) = O=C(O)[C@H]1NCC2CCCCC21; Pro(3,4-benzo) = O=C(O)[C@H]1NCc2ccccc21; Tic = O=C(O)[C@@H]1Cc2ccccc2CN1; Orn = NCCC[C@H](N)C(=O)O; βAla = NCCC(=O)O

For the molecule `CSCC[C@H](NC(=O)[C@H](CC(C)C)NC(=O)[C@H](CCC(=O)O)NC(=O)[C@@H]1CCCN1C(=O)[C@H](Cc1ccccc1)NC(=O)[C@H](CCCCN)NC(=O)CNC(=O)[C@H](CC(C)C)NC(=O)CNC(=O)[C@H](Cc1ccccc1)NC(=O)[C@H](CCC(=O)O)NC(=O)[C@H](CCCCN)NC(=O)CNC(=O)[C@H](CC(C)C)NC(=O)CNC(=O)[C@@H]1CCCN1C(=O)[C@H](Cc1ccccc1)NC(=O)[C@H](CCSC)NC(=O)[C@H](CCCCN)NC(=O)CNC(C)=O)C(=O)NCC(=O)N[C@@H](CCC(=O)O)C(=O)N[C@@H](CCCNC(=N)N)C(N)=O` (Ac-GKMFPGLGKEFGLGKFPELMGER-NH2), the result in the assay with Salmonella typhimurium and in the assay with Staphylococcus aureus was inactive.
As for `CSCC[C@H](NC(=O)[C@H](CC(C)C)NC(=O)[C@H](CCC(=O)O)NC(=O)[C@@H]1CCCN1C(=O)[C@@H]1Cc2ccccc2CN1C(=O)[C@H](CCCCN)NC(=O)CNC(=O)[C@H](CC(C)C)NC(=O)CNC(=O)[C@@H]1C2CCCCC2CN1C(=O)[C@@H]1Cc2ccccc2CN1C(=O)[C@H](CCC(=O)O)NC(=O)[C@H](CCCCN)NC(=O)CNC(=O)[C@H](CC(C)C)NC(=O)CNC(=O)[C@@H]1C2CCCCC2CN1C(=O)[C@@H]1Cc2ccccc2CN1C(=O)[C@H](CCCCN)NC(=O)CNC(C)=O)C(=O)NCC(=O)N[C@@H](CCC(=O)O)C(=O)N[C@@H](CCCNC(=N)N)C(N)=O` (stereo partly drawn) (Ac-GK[Tic][Pro(3ξ,4ξ-(CH2)4)]GLGKE[Tic][Pro(3ξ,4ξ-(CH2)4)]GLGK[Tic]PELMGER-NH2), the result in the assay with Salmonella typhimurium and in the assay on Staphylococcus aureus was inactive.
Regarding `CSCC[C@H](NC(=O)[C@H](CC(C)C)NC(=O)[C@H](CCC(=O)O)NC(=O)[C@@H]1c2ccccc2CN1C(=O)[C@@H]1Cc2ccccc2CN1C(=O)[C@H](Cc1ccccc1)NC(=O)CCNC(=O)[C@@H]1c2ccccc2CN1C(=O)[C@@H]1Cc2ccccc2CN1C(=O)[C@H](CCCCN)NC(=O)CCNC(=O)[C@@H]1c2ccccc2CN1C(=O)[C@@H]1Cc2ccccc2CN1C(=O)[C@H](Cc1ccccc1)NC(=O)CCNC(=O)[C@@H]1c2ccccc2CN1C(=O)[C@@H]1Cc2ccccc2CN1C(=O)[C@H](CCCCN)NC(=O)CCNC(=O)[C@@H]1c2ccccc2CN1C(=O)[C@@H]1Cc2ccccc2CN1C(=O)[C@H](CC(C)C)NC(=O)CNC(=O)[C@H](CCCCN)NC(=O)CN)C(=O)N[C@@H](CC(N)=O)C(=O)N[C@@H](CO)C(N)=O` (H-GKGL[Tic][Pro(3,4-benzo)][βAla]K[Tic][Pro(3,4-benzo)][βAla]F[Tic][Pro(3,4-benzo)][βAla]K[Tic][Pro(3,4-benzo)][βAla]F[Tic][Pro(3,4-benzo)]ELMNS-NH2), the outcome with Salmonella typhimurium and in the assay on Staphylococcus aureus was inactive.
On to `CC(C)C[C@H](NC(=O)CNC(=O)[C@H](CCCCN)NC(=O)CN)C(=O)N1Cc2ccccc2C[C@H]1C(=O)N1CC2CCCCC2[C@H]1C(=O)NCC(=O)N[C@@H](CCCCN)C(=O)N1Cc2ccccc2C[C@H]1C(=O)N1CC2CCCCC2[C@H]1C(=O)NCC(=O)N[C@@H](Cc1ccccc1)C(=O)N1Cc2ccccc2C[C@H]1C(=O)N1CC2CCCCC2[C@H]1C(=O)NCC(=O)N[C@@H](CCCCN)C(=O)N1Cc2ccccc2C[C@H]1C(=O)N1CC2CCCCC2[C@H]1C(=O)NCC(=O)N[C@@H](Cc1ccccc1)C(=O)N1Cc2ccccc2C[C@H]1C(=O)N1CC2CCCCC2[C@H]1C(=O)NCC(=O)N[C@@H](CCCCN)C(=O)N1Cc2ccccc2C[C@H]1C(=O)N1CC2CCCCC2[C@H]1C(=O)NCC(=O)N[C@@H](CCCCN)C(=O)N[C@@H](CCCNC(=N)N)C(N)=O` (stereo partly drawn) (H-GKGL[Tic][Pro(3ξ,4ξ-(CH2)4)]GK[Tic][Pro(3ξ,4ξ-(CH2)4)]GF[Tic][Pro(3ξ,4ξ-(CH2)4)]GK[Tic][Pro(3ξ,4ξ-(CH2)4)]GF[Tic][Pro(3ξ,4ξ-(CH2)4)]GK[Tic][Pro(3ξ,4ξ-(CH2)4)]GKR-NH2), for which the MIC with Staphylococcus aureus was 10 µM (≈ 35.4 µg/mL).
Regarding `CC(C)C[C@H](NC(=O)CNC(=O)[C@H](CCCCN)NC(=O)CN)C(=O)N1Cc2ccccc2C[C@H]1C(=O)N1CC2CCCCC2[C@H]1C(=O)NCC(=O)N[C@@H](CCCCN)C(=O)N1Cc2ccccc2C[C@H]1C(=O)N1CC2CCCCC2[C@H]1C(=O)NCC(=O)N[C@@H](CC(C)C)C(=O)N1Cc2ccccc2C[C@H]1C(=O)N1CC2CCCCC2[C@H]1C(=O)NCC(=O)N[C@@H](CCCCN)C(=O)N1Cc2ccccc2C[C@H]1C(=O)N1CC2CCCCC2[C@H]1C(=O)NCC(=O)N[C@@H](CC(C)C)C(=O)N1Cc2ccccc2C[C@H]1C(=O)N1CC2CCCCC2[C@H]1C(=O)NCC(=O)N[C@@H](CCCCN)C(=O)N1Cc2ccccc2C[C@H]1C(=O)N1CC2CCCCC2[C@H]1C(=O)NCC(=O)N[C@@H](CCCCN)C(=O)N[C@@H](CCCNC(=N)N)C(N)=O` (stereo partly drawn) (H-GKGL[Tic][Pro(3ξ,4ξ-(CH2)4)]GK[Tic][Pro(3ξ,4ξ-(CH2)4)]GL[Tic][Pro(3ξ,4ξ-(CH2)4)]GK[Tic][Pro(3ξ,4ξ-(CH2)4)]GL[Tic][Pro(3ξ,4ξ-(CH2)4)]GK[Tic][Pro(3ξ,4ξ-(CH2)4)]GKR-NH2), the values for the minimum inhibitory concentration (MIC) against Salmonella typhimurium and in the assay on Staphylococcus aureus were 100 µM (≈ 347 µg/mL) and 10 µM (≈ 34.7 µg/mL), respectively.
With `CC(C)C[C@H](NC(=O)CNC(=O)[C@H](CCCCN)NC(=O)CN)C(=O)N1Cc2ccccc2C[C@H]1C(=O)N1CC2CCCCC2[C@H]1C(=O)NCC(=O)N[C@@H](CCCN)C(=O)N1Cc2ccccc2C[C@H]1C(=O)N1CC2CCCCC2[C@H]1C(=O)NCC(=O)N[C@@H](Cc1ccccc1)C(=O)N1Cc2ccccc2C[C@H]1C(=O)N1CC2CCCCC2[C@H]1C(=O)NCC(=O)N[C@@H](CCCCN)C(=O)N1Cc2ccccc2C[C@H]1C(=O)N1CC2CCCCC2[C@H]1C(=O)NCC(=O)N[C@@H](Cc1ccccc1)C(=O)N1Cc2ccccc2C[C@H]1C(=O)N1CC2CCCCC2[C@H]1C(=O)NCC(=O)N[C@@H](CCCCN)C(=O)N1Cc2ccccc2C[C@H]1C(=O)N1CC2CCCCC2[C@H]1C(=O)NCC(=O)N[C@@H](CCCCN)C(=O)N[C@@H](CCCNC(=N)N)C(N)=O` (stereo partly drawn) (H-GKGL[Tic][Pro(3ξ,4ξ-(CH2)4)]G[Orn][Tic][Pro(3ξ,4ξ-(CH2)4)]GF[Tic][Pro(3ξ,4ξ-(CH2)4)]GK[Tic][Pro(3ξ,4ξ-(CH2)4)]GF[Tic][Pro(3ξ,4ξ-(CH2)4)]GK[Tic][Pro(3ξ,4ξ-(CH2)4)]GKR-NH2), the result in the assay with Salmonella typhimurium was inactive.
On to `CSCC[C@H](NC(=O)[C@H](CC(C)C)NC(=O)[C@H](CCC(=O)O)NC(=O)[C@@H]1CCCN1C(=O)[C@H](Cc1ccccc1)NC(=O)[C@H](CCCCN)NC(=O)CNC(=O)[C@H](CC(C)C)NC(=O)CNC(=O)[C@@H]1CCCN1C(=O)[C@H](Cc1ccccc1)NC(=O)[C@H](CCCCN)NC(=O)CNC(=O)[C@H](CC(C)C)NC(=O)CNC(=O)[C@@H]1CCCN1C(=O)[C@H](Cc1ccccc1)NC(=O)[C@H](CCSC)NC(=O)[C@H](CCCCN)NC(=O)CN)C(=O)NCC(=O)N[C@@H](CCCNC(=N)N)C(N)=O` (H-GKMFPGLGKFPGLGKFPELMGR-NH2), for which the outcome with Salmonella typhimurium and in the assay with Staphylococcus aureus was inactive.
Regarding `CC[C@H](C)[C@H](NC(=O)CN)C(=O)NCC(=O)N[C@@H](CCCCN)C(=O)N[C@@H](Cc1ccccc1)C(=O)N[C@@H](CC(C)C)C(=O)N[C@@H](Cc1cnc[nH]1)C(=O)N[C@@H](CO)C(=O)N[C@@H](C)C(=O)NCC(=O)N[C@@H](CCCCN)C(=O)N[C@@H](Cc1ccccc1)C(=O)NCC(=O)N[C@@H](CCCCN)C(=O)N[C@@H](C)C(=O)N[C@@H](Cc1ccccc1)C(=O)N[C@H](C(=O)NCC(=O)N[C@@H](CCC(=O)O)C(=O)N[C@H](C(=O)N[C@@H](CCSC)C(=O)N[C@@H](CCCCN)C(=O)N[C@@H](CO)C(N)=O)[C@@H](C)CC)C(C)C` [MAGAININ 1], 30 µM (≈ 72.3 µg/mL) was the least that counted as inhibitory against Salmonella typhimurium (MIC).
